Data taken from patent US12077503B2, “Substituted cyclic amides and their use as herbicides” (FMC CORPORATION, priority 2015, dated 2024).
Where two headings read alike, the source gives them in different places.

How the values were obtained:
Format in all cases: in vivo
rice (Oryra sativa) = experiment: Test B flooded paddy test; settings: Oryza sativa, 250 g ai/ha, Flood; 0 to 100 scale where 0 is no effect and 100 is complete control; read-out: Rice plant response rating
Outline: (§1)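 Greenhouse paddy pots with 2-leaf stage plants received compound by direct addition to floodwater 3 cm deep, kept at that level. Scored visually at 13–15 d versus controls (0 no effect; 100 complete control).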

[1] = tested on: barnyardgrass (Echinochloa crus-galli); experiment: Test B flooded paddy test; settings: Echinochloa crus-galli, 250 g ai/ha, Flood; 0 to 100 scale where 0 is no effect and 100 is complete control; read-out: Barnyardgrass plant response rating
Outline: as §1

[2] = tested on: sedge, umbrella (small-flower umbrella sedge, Cyperus difformis); experiment: Test B flooded paddy test; settings: Cyperus difformis, 250 g ai/ha, Flood; 0 to 100 scale where 0 is no effect and 100 is complete control; read-out: Sedge, Umbrella plant response rating
Outline: as §1

[3] = tested on: ducksalad (Heteranthera limosa); experiment: Test B flooded paddy test; settings: Heteranthera limosa, 250 g ai/ha, Flood; 0 to 100 scale where 0 is no effect and 100 is complete control; read-out: Ducksalad plant response rating
Outline: as §1

[4] = tested on: pigweed (Amaranthus retroflexus); experiment: Test A preemergence; settings: Amaranthus retroflexus, pre-emergence, 240 h, preemergence, 0 to 100 scale where 0 is no effect and 100 is complete control, read-out: Pigweed plant response rating; for pest or weed control at 125 g/ha: 125 g ai/ha, visual injury rating, approximately 10 d; for pest or weed control at 500 g/ha: 500 g ai/ha
[5] = tested on: barnyardgrass (Echinochloa crus-galli); experiment: Test A preemergence; settings: Echinochloa crus-galli, pre-emergence, 240 h, preemergence, 0 to 100 scale where 0 is no effect and 100 is complete control, read-out: Barnyardgrass plant response rating; for pest or weed control at 125 g/ha: 125 g ai/ha, visual injury rating, approximately 10 d; for pest or weed control at 500 g/ha: 500 g ai/ha
Outline: (§2)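 In a loam soil and sand blend, planted seeds got a preemergence directed soil spray, and young plants at the one- to two-leaf stage, 2–10 cm high, got a postemergence application; ~10 d greenhouse hold; injury rated visually, 0 = none, 100 = complete control.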

[6] = tested on: giant foxtail (Setaria faberii); experiment: Test A preemergence; settings: Setaria faberi, pre-emergence, 240 h, preemergence, 0 to 100 scale where 0 is no effect and 100 is complete control, read-out: Foxtail, Giant plant response rating; for pest or weed control at 125 g/ha: 125 g ai/ha, visual injury rating, approximately 10 d; for pest or weed control at 500 g/ha: 500 g ai/ha
Outline: as §2

Kochia (Kochia scoparia) = experiment: Test A preemergence; settings: Bassia scoparia, pre-emergence, 240 h, preemergence, 0 to 100 scale where 0 is no effect and 100 is complete control, read-out: Kochia plant response rating; for pest or weed control at 125 g/ha: 125 g ai/ha, visual injury rating, approximately 10 d; for pest or weed control at 500 g/ha: 500 g ai/ha
Outline: as §2

[7] = tested on: ryegrass, Italian (Italian ryegrass, Lolium multiflorum); experiment: Test A preemergence; settings: Lolium multiflorum, pre-emergence, 240 h, preemergence, 0 to 100 scale where 0 is no effect and 100 is complete control, read-out: Ryegrass, Italian plant response rating; for pest or weed control at 125 g/ha: 125 g ai/ha, visual injury rating, approximately 10 d; for pest or weed control at 500 g/ha: 500 g ai/ha
Outline: as §2

[8] = tested on: ragweed (common ragweed, Ambrosia elatior); experiment: Test A preemergence; settings: Ambrosia artemisiifolia, pre-emergence, 240 h, preemergence, 0 to 100 scale where 0 is no effect and 100 is complete control, read-out: Ragweed plant response rating; for pest or weed control at 500 g/ha: 500 g ai/ha; for pest or weed control at 125 g/ha: 125 g ai/ha, visual injury rating, approximately 10 d
Outline: as §2

[9] = tested on: pigweed (Amaranthus retroflexus); experiment: Test A postemergence; settings: Amaranthus retroflexus, post-emergence, 240 h; for pest or weed control at 125 g/ha: 125 g ai/ha, read-out: Pigweed plant response rating (0 to 100 scale); for pest or weed control at 500 g/ha: 500 g ai/ha
Outline: as §2

[10] = tested on: wheat (Triticum aestivum); experiment: Test A postemergence; settings: Triticum aestivum, post-emergence, 240 h; for plant injury at 125 g/ha: 125 g ai/ha, read-out: Wheat plant response rating (0 to 100 scale); for plant injury at 500 g/ha: 500 g ai/ha
Outline: as §2

[11] = tested on: giant foxtail (Setaria faberii); experiment: Test A postemergence; settings: Setaria faberi, post-emergence, 240 h; for pest or weed control at 125 g/ha: 125 g ai/ha, read-out: Foxtail, Giant plant response rating (0 to 100 scale); for pest or weed control at 500 g/ha: 500 g ai/ha
Outline: as §2

[12] = tested on: ryegrass, Italian (Italian ryegrass, Lolium multiflorum); experiment: Test A postemergence; settings: Lolium multiflorum, post-emergence, 240 h; for pest or weed control at 125 g/ha: 125 g ai/ha, read-out: Ryegrass, Italian plant response rating (0 to 100 scale); for pest or weed control at 500 g/ha: 500 g ai/ha
Outline: as §2

[13] = tested on: blackgrass (Alopecurus myosuroides); experiment: Test A postemergence; settings: Alopecurus myosuroides, post-emergence, 240 h; for pest or weed control at 125 g/ha: 125 g ai/ha, read-out: Blackgrass plant response rating (0 to 100 scale); for pest or weed control at 500 g/ha: 500 g ai/ha
Outline: as §2

[14] = Postemergence, visual rating about 10 d after treatment
[15] = postemergence, visual injury vs untreated controls after approx. 10 d, 0 = no effect, 100 = complete control
[16] = postemergence, 0 to 100 scale, 0 is no effect, 100 is complete control, read-out: Pigweed plant response rating
[17] = postemergence, 0 to 100 scale, 0 is no effect, 100 is complete control, read-out: Wheat plant response rating
[18] = postemergence, 0 to 100 scale, 0 is no effect, 100 is complete control, read-out: Foxtail, Giant plant response rating
[19] = postemergence, 0 to 100 scale, 0 is no effect, 100 is complete control, read-out: Ryegrass, Italian plant response rating
[20] = postemergence, 0 to 100 scale, 0 is no effect, 100 is complete control, read-out: Blackgrass plant response rating

Row | SMILES | pest or weed control at 250 g/ha (rice (Oryra sativa)) | pest or weed control at 250 g/ha [1] | pest or weed control at 250 g/ha [2] | pest or weed control at 250 g/ha [3] | pest or weed control at 125 g/ha [4] | pest or weed control at 500 g/ha [4] | pest or weed control at 125 g/ha [5] | pest or weed control at 500 g/ha [5] | pest or weed control at 125 g/ha [6] | pest or weed control at 500 g/ha [6] | pest or weed control at 125 g/ha (Kochia (Kochia scoparia)) | pest or weed control at 500 g/ha (Kochia (Kochia scoparia)) | pest or weed control at 125 g/ha [7] | pest or weed control at 500 g/ha [7] | pest or weed control at 500 g/ha [8] | pest or weed control at 125 g/ha [8] | pest or weed control at 125 g/ha [9, 15] | pest or weed control at 500 g/ha [9, 16] | plant injury at 125 g/ha [10, 15] | plant injury at 500 g/ha [10, 17] | further results
1 | Cc1cc(F)cc([C@H]2CNC(=O)[C@@H]2C(=O)Nc2ccccc2S(C)(=O)=O)c1 [Compound 1307] | 20% | 30% | 0% | 100% | 0% | 0% | 80% | 90% | 50% | 90% | 20% | 90% | 0% | 0% | 60% |  |  |  |  |  | pest or weed control at 125 g/ha [9, 14]: 0%; pest or weed control at 500 g/ha ([9]; Postemergence, visual injury, 0 to 100 scale (0 no effect, 100 complete control), approx. 10 d, read-out: Plant response rating, Pigweed): 0%; plant injury at 125 g/ha [10, 14]: 0%; plant injury at 500 g/ha ([10]; Postemergence, visual injury, 0 to 100 scale (0 no effect, 100 complete control), approx. 10 d, read-out: Plant response rating, Wheat): 0%; pest or weed control at 125 g/ha [11, 14]: 0%; pest or weed control at 500 g/ha ([11]; Postemergence, visual injury, 0 to 100 scale (0 no effect, 100 complete control), approx. 10 d, read-out: Plant response rating, Foxtail, Giant): 20%; pest or weed control at 125 g/ha [12, 14]: 0%; pest or weed control at 500 g/ha ([12]; Postemergence, visual injury, 0 to 100 scale (0 no effect, 100 complete control), approx. 10 d, read-out: Plant response rating, Ryegrass, Italian): 0%; pest or weed control at 125 g/ha [13, 14]: 0%; pest or weed control at 500 g/ha ([13]; Postemergence, visual injury, 0 to 100 scale (0 no effect, 100 complete control), approx. 10 d, read-out: Plant response rating, Blackgrass): 0%
2 | Cc1cc([C@H]2CN(C)C(=O)[C@@H]2C(=O)Nc2cccc(F)c2F)on1 [Compound 1196] | 0% | 0% | 0% | 30% | 0% | 0% | 50% | 90% | 70% | 90% | 0% | 0% | 0% | 0% | 0% | 0% | 0% | 0% | 0% | 0% | pest or weed control at 125 g/ha [11, 15]: 30%; pest or weed control at 500 g/ha [11, 18]: 80%; pest or weed control at 125 g/ha [12, 15]: 0%; pest or weed control at 500 g/ha [12, 19]: 0%; pest or weed control at 125 g/ha [13, 15]: 0%; pest or weed control at 500 g/ha [13, 20]: 0%
3 | N#Cc1ccc([C@H]2CNC(=O)[C@@H]2C(=O)Nc2cccc(F)c2F)cc1 [Compound 1206] | 15% | 0% | 0% | 95% | 50% | 90% | 70% | 100% | 80% | 90% | 60% | 100% | 0% | 0% | 60% | 0% | 0% | 30% | 0% | 0% | pest or weed control at 125 g/ha [11, 15]: 50%; pest or weed control at 500 g/ha [11, 18]: 80%; pest or weed control at 125 g/ha [12, 15]: 0%; pest or weed control at 500 g/ha [12, 19]: 0%; pest or weed control at 125 g/ha [13, 15]: 0%; pest or weed control at 500 g/ha [13, 20]: 0%
